Measured values reported in patent US5700817A, “Cyclic lipid derivatives as potent PAF antagonists” (Pohang Iron & Steel Co., Ltd., priority 1993, dated 1997).
Values belong to the compound of their own block, whether it stands above or below them.

Key:
[1] = test system: PAF-induced platelet aggregation, rabbit platelets; assay: Inhibitory action on PAF-induced platelet aggregation (platelet-rich plasma); format: cell-based, New Zealand male rabbits; details: Oryctolagus cuniculus, PAF 5×10^-9 M, 37° C., turbidimetry, rabbit PRP
Method: Blood was collected from the hearts of conscious New Zealand male rabbits weighing 2 to 3 kg using citric acid as an anticoagulant (one volume part of 3% citric acid relative to 9 volume parts of the whole blood). A platelet-rich plasma(PRP) was prepared by centrifugation at 1000 rpm for 10 minutes. The remaining blood after collecting the PRP was subjected to a centrifuge at 3000 rpm for 10 minutes to obtain platelet poor plasma(PPP). PRP was diluted with PPP to adjust the number of platelets to about 3×10^5 /μl. Solution of test compound (30 μl) was added to the PRP(270 μl), and after incubation for 2 minutes at 37° C., 30 μl aliquot of PAF(5×10^-9 M) was added. Platelet aggregation was then examined by means of turbidimetry [Born, Nature, 194, 927(1962)] with dual channel aggregometer (Chrono-Log. Corp., Havertown, Pa.). As the control, physiological saline without test sample was used. The platelet aggregation inhibiting activities of the test sample are expressed as IC50, that is the concentration of the compound at which 50% of the aggregation is inhibited.

[2] = test system: PAF-induced [^14 C]serotonin release, rabbit platelets; assay: Inhibitory action on PAF-induced [14C]-serotonin release from rabbit platelets; format: cell-based, New Zealand white male rabbits; details: Oryctolagus cuniculus, Platelet, PAF 1×10^-9 M; for inhibition at 0.05 µM: test compound 5 × 10^-8 M; for inhibition at 0.005 µM: test compound 5 × 10^-9 M
Method: The following pharmacological test examples explain the effects of the present invention in a more concrete manner.
Inhibitory action on PAF-induced [^14 ]-serotonin release
Blood was collected from the hearts of conscious New Zealand white male rabbits weighing 2 to 3 kg. The blood was immediately subjected to a centrifuge at 1400 rpm for 10 minutes to obtain platelet rich plasma(PRP).PRP was incubated with a trace amount of [^14 C]-serotonin for 20 minutes at 22° C. Prelabelled platelets were prepared by centrifugation at 3500 rpm for 10 minutes. The test compound was added to 80 μl of [^14 C]serotonin-labeled platelets in plastic test tubes, and the mixture was incubated for 2 minutes. PAF (1×10 ^-9 M) was then added to the reaction mixture and incubated for additional 2 minutes at which time 10 μl of cold formaldehyde was added to stop the reactions. The tubes were immediately cooled to 4° C. and centrifuged at 12000 rpm for 2 minutes. The supernatants (80 μl) were assayed for percentage of [^14 C]serotonin release by the conventional methods of measuring ^14 C counts.

PAF receptor = molecular target: T1, PAF receptor (Oryctolagus cuniculus, UniProt G1TEI7); assay: PAF Receptor Binding Assay ([3H]C18-PAF, rabbit platelet membranes)
T1 construct: Platelet membranes were prepared by centrifugation and washing; tissue Pel-Freez (Rogers, AR), supplier of the citrated whole rabbit blood; host or cells: rabbit platelet membranes
Method: PAF Receptor Binding Assay Citrated whole rabbit blood was obtained from Pel-Freez(Rogers, AR). Rabbit platelets were prepared by centrifugation and washing. The platelets were lysed by freeze-thawing and sonification; Platelet membranes were prepared by centrifugation and washing. Final membrane preparation were stored frozen in 10 mM Tris/5 mM MgCl2 /2 mM EDTA (TME buffer, pH 7.0) with 0.25M sucrose added for membrane stabilization. […] The final volume of the assay was 1001 μl. The assay was conducted in Millititer-GV™(Millipore Corp.) filtration plates; incubation time was for 60 minutes at room temperature (22°-23° C.). […] The filters were dried and removed. The bound radioactivity was quantiated with a Berthold TLC-Linear Analyzer model LB2842. […] Experiments were repeated at least once. […] Ki values of inhibitory binding constants were calculated according to the methods of the literature[Cheng et al., Biochem.

T1 sequence (G1TEI7 1-342): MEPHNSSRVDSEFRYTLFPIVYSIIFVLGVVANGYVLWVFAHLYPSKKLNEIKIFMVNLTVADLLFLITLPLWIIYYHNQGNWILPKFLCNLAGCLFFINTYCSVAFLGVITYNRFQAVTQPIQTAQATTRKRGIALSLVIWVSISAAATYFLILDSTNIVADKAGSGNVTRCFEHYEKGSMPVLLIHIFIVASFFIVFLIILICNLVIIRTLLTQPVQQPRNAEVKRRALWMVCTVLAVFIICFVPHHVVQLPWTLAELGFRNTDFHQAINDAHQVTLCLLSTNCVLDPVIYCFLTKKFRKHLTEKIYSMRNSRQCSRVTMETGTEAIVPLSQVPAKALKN

IC50 [1]: 19 nM
Compound: CCCCCCCCCCCCCCCCOC[C@H]1C[C@H](COC(=O)N(Cc2cccc[n+]2CC)C(=O)c2ccccc2OC)S1 (relative stereo) [Example 33, trans-2-[[N-(2-Methoxy)benzoyl-N-[[[4-[(hexadecyloxy)methyl]-2-thietanyl]methoxy]carbonyl]amino]methyl]-1-ethyl-pyridinium chloride]

Compound: CCCCCCCCCCCCCCCCCCNC(=O)OCC1(COC(=O)CCCCC[n+]2ccsc2)COC1 [Example 13, 3-[5-[[[3-[[(Octadecylcarbamoyl)oxy]methyl]-3-oxetanyl]methoxy]carbonyl]pentyl]thiazolium bromide]
inhibition at 0.05 µM [2]: 85%

Compound: CCCCCCCCCCCCCCCCOC[C@H]1C[C@@H](COC(=O)N(Cc2cccc[n+]2CC)C(C)=O)O1 (relative stereo) [Example 1, cis-2-[[N-Acetyl-N-[[[2-[(hexadecyloxy)methyl]-4-oxetanyl]methoxy]carbonyl]amino]methyl]-1-ethyl-pyridinium iodide]
inhibition at 0.2 µM ([2]; test compound 2 × 10^-7 M): 90%

Compound: CCCCCCCCCCCCCCCCCCNC(=O)OC[C@@H]1C[C@H](COC(=O)N(Cc2cccc[n+]2CC)C(C)=O)O1 (relative stereo) [Example 3, cis-2-[[N-Acetyl-N-[[[4-[[(octadecylcarbamoyl)oxy]methyl]-2-oxetanyl]methoxy]carbonyl]amino]methyl]-1-ethyl-pyridinium iodide]
inhibition at 0.05 µM [2]: 85%

Compound: CCCCCCCCCCCCCCCCCCNC(=O)OCC1(COC(=O)N(Cc2cccc[n+]2CC)C(C)=O)COC1 [Example 6, 2-[[-Acetyl-N-[[[3-[[(octadecylcarbamoyl)oxy]methyl]-3-oxetanyl]methoxy]carbonyl]amino]methyl]-1-ethyl-pyridinium iodide]
inhibition at 0.005 µM [2]: 75%

Compound: CCCCCCCCCCCCCCCCCCNC(=O)OC[C@H]1C[C@H](COC(=O)N(Cc2cccc[n+]2CC)C(C)=O)O1 (relative stereo) [Example 5, trans-2-[[N-Acetyl-N-[[[4-[[(octadecylcarbamoyl)oxy]methyl]-2-oxetanyl]methoxy]carbonyl]amino]methyl]-1-ethyl-pyridinium iodide]
inhibition at 0.05 µM [2]: 95% | inhibition at 0.005 µM [2]: 70%

Ki (PAF receptor): 34 nM
Compound: CCCCCCCCCCCCCCCCCCNC(=O)OC[C@H]1C[C@H](COC(=O)N(Cc2cccc[n+]2CC)C(=O)c2ccccc2OC)S1 (relative stereo) [Example 30, trans-2-[[N-(2-Methoxy)benzoyl-N-[[[4-[[(octadecylcarbamoyl)oxy]ethyl]-2-thietanyl]methoxy]carbonyl]amino]-1-ethyl-pyridinium chloride]

Ki (PAF receptor): 104 nM
Compound: CCCCCCCCCCCCCCCCCCNC(=O)OC[C@H]1C[C@H](COC(=O)N(Cc2cccc[n+]2CC)C(C)=O)N1C(=O)c1ccccc1 (relative stereo) [Example 44, 2-[[N-Acetyl-N-[[[4-[[(octadecylcarbamoyl)oxy]methyl]-1-benzoylazetidine-2-yl]methoxy]carbonyl]amino]methyl]-1-ethyl-pyridinium chloride]
